Source: patent US11440907B1 (Merck Patent GmbH, priority 2018, dated 2022)

Columns and labels:
[1] = system: XBP1(u)-luciferase splicing reporter in HepG2 hepatoma cells; assay: HepG2 XBP1 reporter assay (XBP1(u)-Luc); format: cell-based; settings: Homo sapiens, 6 hours after compound addition, Table 3, read-out: XBP1-luc HepG2 1 EC50
[2] = system: β-catenin-TCF-mediated reporter transcription activity in Colo 205 cells; assay: Colo 205 reporter assay (TCF/LEF promoter-driven firefly luciferase); format: cell-based; settings: Homo sapiens; Colo 205 TCF/LEF luciferase reporter, 5 hours after compound addition, 384 well; read-out: Colo205 IC50

EC50 [1]	IC50 [2]	Structure (SMILES)
< 600 nM	< 300 nM	Cc1cc(N2CCCOCC2c2cc(NC(=O)C3CC3)ccc2Cl)nc(N)n1 (racemic) [I-241, (+/−)-N-[3-[4-(2-amino-6-methyl-pyrimidin-4-yl)-1,4-oxazepan-3-yl]-4-chloro-phenyl]cyclopropanecarboxamide]
600 to 2000 nM	< 300 nM	Cc1cc(N2CCCOCC2c2ccc(C3COC3)cc2Cl)nc(N)n1 (racemic) [I-255, (+/−)-4-[3-[2-chloro-4-(oxetan-3-yl)phenyl]-1,4-oxazepan-4-yl]-6-methyl-pyrimidin-2-amine]
< 600 nM	< 300 nM	Cc1cc(N2CCCOC[C@H]2c2ccc(NC(=O)C(C)(C)O)cc2Cl)nc(N)n1 (racemic) [I-277, (+/−)-N-(4-(4-(2-amino-6-methylpyrimidin-4-yl)-1,4-oxazepan-3-yl)-3-chlorophenyl)-2-hydroxy-2-methylpropanamide]
< 600 nM	< 300 nM	Cc1cc(N2CCCOCC2c2ccc(NC(=O)C3(F)CCOC3)cc2Cl)nc(N)n1 (racemic) [I-279, (+/−)-N-(4-(4-(2-amino-6-methylpyrimidin-4-yl)-1,4-oxazepan-3-yl)-3-chlorophenyl)-3-fluorotetrahydrofuran-3-carboxamide]
< 600 nM	300 to 1000 nM	Cc1cc(N2CCCOCC2c2ccc(NC(=O)[C@@H]3CCOC3)cc2Cl)nc(N)n1 (mixture of isomers) [I-280, (3R)—N-(4-(4-(2-amino-6-methylpyrimidin-4-yl)-1,4-oxazepan-yl)-3-chlorophenyl)-tetrahydrofuran-3-carboxamide]
600 to 2000 nM	300 to 1000 nM	Cc1cc(N2CCCOCC2c2ccc(NC(=O)[C@H]3CCOC3)cc2Cl)nc(N)n1 (mixture of isomers) [I-281, (3S)—N-(4-(4-(2-amino-6-methylpyrimidin-4-yl)-1,4-oxazepan-3-yl)-3-chlorophenyl)-tetrahydrofuran-3-carboxamide]
600 to 2000 nM	300 to 1000 nM	Cc1cc(N2CCCOCC2c2ccc(NC(=O)C3(C)COC3)cc2Cl)nc(N)n1 (racemic) [I-282, (+/−)-N-(4-(4-(2-amino-6-methylpyrimidin-4-yl)-1,4-oxazepan-3-yl)-3-chlorophenyl)-3-methyloxetane-3-carboxamide]
< 600 nM	< 300 nM	Cc1cc(N2CCCOC[C@@H]2c2ccc(NCC3(C)COC3)cc2Cl)nc(N)n1 [I-240, 4-[(3S)-3-[2-chloro-4-[(3-methyloxetan-3-yl)methylamino]phenyl]-1,4-oxazepan-4-yl]-6-methyl-pyrimidin-2-amine]
< 600 nM	< 300 nM	Cc1cc(N2CCCOC[C@@H]2c2ccc(NC3CN(C)C3)cc2Cl)nc(N)n1 [I-246, 4-[(3S)-3-[2-chloro-4-[(1-methylazetidin-3-yl)amino]phenyl]-1,4-oxazepan-4-yl]-6-methyl-pyrimidin-2-amine]
< 600 nM	< 300 nM	Cc1cc(N2CCCOC[C@@H]2c2ccc(NCC(C)(C)O)cc2Cl)nc(N)n1 [I-247, 1-[4-[(3S)-4-(2-amino-6-methyl-pyrimidin-4-yl)-1,4-oxazepan-3-yl]-3-chloro-anilino]-2-methyl-propan-2-ol]
< 600 nM	< 300 nM	Cc1cc(N2CCCOC[C@@H]2c2ccc(NC3CC3)cc2Cl)nc(N)n1 [I-248, 4-[(3S)-3-[2-chloro-4-(cyclopropylamino)phenyl]-1,4-oxazepan-4-yl]-6-methyl-pyrimidin-2-amine]
< 600 nM	300 to 1000 nM	Cc1cc(N2CCCOC[C@@H]2c2ccc(NC3CNC3)cc2Cl)nc(N)n1 [I-257, 4-[(3S)-3-[4-(azetidin-3-ylamino)-2-chloro-phenyl]-1,4-oxazepan-4-yl]-6-methyl-pyrimidin-2-amine]
< 600 nM	< 300 nM	Cc1cc(N2CCCOC[C@@H]2c2ccc(N3CC4(COC4)C3)cc2Cl)nc(N)n1 [I-259, 4-[(3S)-3-[2-chloro-4-(2-oxa-6-azaspiro[3.3]heptan-6-yl)phenyl]-1,4-oxazepan-4-yl]-6-methyl-pyrimidin-2-amine]

Second part, the compound before the results:

Structure (SMILES)	EC50 [1]	IC50 [2]
Cc1cc(N2CCCOCC2c2ccc(C3CCC(=O)N3C)cc2Cl)nc(N)n1 (racemic) [I-239, (+/−)-5-(4-(4-(2-amino-6-methylpyrimidin-4-yl)-1,4-oxazepan-3-yl)-3-chlorophenyl)-1-methylpyrrolidin-2-one]	< 600 nM	300 to 1000 nM
Cc1cc(N2CCCOCC2c2cc(NCCCO)ccc2Cl)nc(N)n1 (racemic) [I-249, (+/−)-3-[3-[4-(2-amino-6-methyl-pyrimidin-4-yl)-1,4-oxazepan-3-yl]-4-chloro-anilino]propan-1-ol]	< 600 nM	< 300 nM
Cc1cc(N2CCCOCC2c2cc(NC(=O)C(F)F)ccc2Cl)nc(N)n1 (racemic) [I-250, (+/−)-N-(3-(4-(2-amino-6-methylpyrimidin-4-yl)-1,4-oxazepan-3-yl)-4-chlorophenyl)-2,2-difluoroacetamide]	< 600 nM	< 300 nM
Cc1cc(N2CCCOCC2c2cc(NC(=O)CC(C)(C)O)ccc2Cl)nc(N)n1 (racemic) [I-251, (+/−)-N-[3-[4-(2-amino-6-methyl-pyrimidin-4-yl)-1,4-oxazepan-3-yl]-4-chloro-phenyl]-3-hydroxy-3-methyl-butanamide]	600 to 2000 nM	< 300 nM
CC(=O)N(C)Cc1ccc(C2COCCCN2c2cc(C)nc(N)n2)c(Cl)c1 (racemic) [I-254, (+/−)-N-(4-(4-(2-amino-6-methylpyrimidin-4-yl)-1,4-oxazepan-3-yl)-3-chlorobenzyl)-N-methylacetamide]	< 600 nM	< 300 nM
Cc1cc(N2CCCOCC2c2ccc(C3CCCN3)cc2Cl)nc(N)n1 (racemic) [I-267]	< 600 nM	< 300 nM
Cc1cc(N2CCCOCC2c2cc3c(cc2Cl)SCC(=O)N3)nc(N)n1 (racemic) [I-268, 6-[4-(2-amino-6-methyl-pyrimidin-4-yl)-1,4-oxazepan-3-yl]-7-chloro-4H-1,4-benzothiazin-3-one]	< 600 nM	< 300 nM
Cc1cc(N2CCCOCC2c2ccc(N3CCN(C(=O)C4CC4)CC3)cc2Cl)nc(N)n1 (racemic) [I-273, (+/−)-[4-[4-[4-(2-amino-6-methyl-pyrimidin-4-yl)-1,4-oxazepan-3-yl]-3-chloro-phenyl]piperazin-1-yl]-cyclopropyl-methanone]	< 600 nM	< 300 nM
Cc1cc(N2CCCOCC2c2cc3c(cc2Cl)SCCN3)nc(N)n1 (racemic) [I-274, 4-[3-(7-chloro-3,4-dihydro-2H-1,4-benzothiazin-6-yl)-1,4-oxazepan-4-yl]-6-methyl-pyrimidin-2-amine]	≥ 5000 nM	300 to 1000 nM
Cc1cc(N2CCCCC[C@H]2c2ccccc2Br)nc(N)n1 (single isomer, unassigned) [I-3]	< 600 nM	< 300 nM
COc1ccccc1[C@H]1CCCCCN1c1cc(C)nc(N)n1 (single isomer, unassigned) [I-11]	2000 to 5000 nM	< 300 nM
Cc1cc(N2CCCCC[C@H]2c2ccccc2Cl)nc(N)n1 (single isomer, unassigned) [I-14]	< 600 nM	< 300 nM
COc1cc(S(C)(=O)=O)ccc1[C@@H]1CCCCCN1c1cc(C)nc(N)n1 (single isomer, unassigned) [I-98, 4-[2-(2-methoxy-4-methylsulfonyl-phenyl)azepan-1-yl]-6-methyl-pyrimidin-2-amine]	< 600 nM	300 to 1000 nM
Cc1cc(N2CCCOCC2c2cc(NCCO)ccc2Cl)nc(N)n1 (single isomer, unassigned) [I-237]	< 600 nM	< 300 nM
Cc1cc(N2CCCOC[C@@H]2c2cc(NCCO)ccc2Cl)nc(N)n1 (single isomer, unassigned) [I-253]	< 600 nM	< 300 nM
Cc1cc(N2CCCOC[C@@H]2c2ccc(OC[C@@H](C)O)cc2Cl)nc(N)n1 (single isomer, unassigned) [I-265]	< 600 nM	< 300 nM
CC(=O)Nc1cc([C@H]2COCCCN2c2cc(C)nc(N)n2)c(Cl)cc1F (single isomer, unassigned) [I-271]	< 600 nM	300 to 1000 nM
Cc1cc(N2CCCCCC2c2ccccc2Br)nc(N)n1 (stereo not shown) [I-69]	< 600 nM	300 to 1000 nM
COc1ccccc1C1CCCCCN1c1cc(C)nc(N)n1 (stereo not shown) [I-124]	600 to 2000 nM	< 300 nM
Cc1cc(N2CCCOCC2c2cc(N3CC[C@H](O)C3)ccc2Cl)nc(N)n1 (stereo partly drawn) [I-234, (3S)-1-[3-[4-(2-amino-6-methyl-pyrimidin-4-yl)-1,4-oxazepan-3-yl]-4-chloro-phenyl]pyrrolidin-3-ol]	< 600 nM	300 to 1000 nM
Cc1cc(N2CCCOC[C@@H]2c2ccc(N3CCC(C)(O)CC3)cc2Cl)nc(N)n1 [I-242, (5)-1-(4-(4-(2-amino-6-methylpyrimidin-4-yl)-1,4-oxazepan-3-yl)-3-chlorophenyl)-4-methylpiperidin-4-ol]	< 600 nM	< 300 nM
Cc1cc(N2CCCCCC2c2ccccc2Cl)nc(N)n1 (stereo not shown) [I-243]	< 600 nM	< 300 nM
Cc1cc(N2CCCOC[C@@H]2c2cc(Br)ccc2Cl)nc(N)n1 [I-245, 4-[(3S)-3-(5-bromo-2-chloro-phenyl)-1,4-oxazepan-4-yl]-6-methyl-pyrimidin-2-amine]	< 600 nM	300 to 1000 nM
Cc1cc(N2CCCOC[C@@H]2c2ccc(NC3CN(C(=O)OC(C)(C)C)C3)cc2Cl)nc(N)n1 [I-256, Tert-butyl 3-[4-[(3S)-4-(2-amino-6-methyl-pyrimidin-4-yl)-1,4-oxazepan-3-yl]-3-chloro-anilino]azetidine-1-carboxylate]	< 600 nM	< 300 nM
Cc1cc(N2CCCOC[C@@H]2c2cc(NC3COC3)ccc2Cl)nc(N)n1 [I-258, 4-[(3S)-3-[2-chloro-5-(oxetan-3-ylamino)phenyl]-1,4-oxazepan-4-yl]-6-methyl-pyrimidin-2-amine]	< 600 nM	< 300 nM
